For eight compounds, EC50 and IC50 results are on record in US11760722B2 (priority 2022, dated 2023).

The test system of assay [1] is SARS-CoV-2 replicon. As to the kind of experiment: microbe, parasite or virus in culture. The conditions noted are these: Severe acute respiratory syndrome coronavirus 2, Huh-7, 24 h; read-out: Replicon EC50. Format: cell-based. In general terms: A replicon is a self-replicating genome or part of one, used to study replication in cells.
Assay [2] concerns the target T1, COVID-19 WT Mpro (Severe acute respiratory syndrome coronavirus 2, UniProt P0DTD1).
T1 construct: The C-His6-tagged COVID-19 WT Mpro (NC_045512); His6 (C); host or cells: E. coli
The assay can be described thus: biochemical. The conditions noted are these: WT Mpro 25 nM, substrate 25 μM, 30 min pre-incubation; several values in a cell = repeat determinations.

Assay [3] relates to human coronavirus (HCoV) 229E. The assay can be described thus: microbe, parasite or virus in culture. The assay is classed as cell-based, human coronavirus 229E. The conditions noted are these: unidentified human coronavirus, 72 h, MRCS cells, HCoV 229E, 3 days, CellTiter Glo; read-out: 229E CPE EC50. In general terms: Cellular ATP, detected with luciferase, serves as a proxy for viable cell number.
Method: Test compounds were provided by the sponsor. Reference compound remdesivir was provided by WuXi AppTec. Compounds were assayed at 8 concentrations (to be defined by sponsor), in duplicate wells.
MRCS cells were obtained from the ATCC, and maintained in the Minimum Essential Medium supplemented with 10% FBS, 1% L-glutamine, 1% NEAA and 1% penicillin-streptomycin. Minimum Essential Medium supplemented with 5% FBS, 1% L-glutamine, 1% NEAA and 1% penicillin-streptomycin was used as the assay medium.
Cells were seeded in 96 well plates, in 100 μl per well of assay medium, and cultured at 37° C. and 5% CO2 overnight. Next day, test compound was diluted with assay medium and then added into the cells, 50 μl per well. Then 50 μl per well of assay medium diluted virus was added. The final volume of the cell culture was 200 μl per well. […] The CPE were measured by CellTiter Glo following the manufacturer's manual. The antiviral activity of compounds was calculated based on the protection of the virus-induced CPE at each concentration normalized by the virus control.
EC50 and CC50 values were calculated using the GraphPad Prism software using the nonlinear regression model of log(inhibitor) vs. response—Variable slope (four parameters).

In the case of `CC(C)(C)[C@H](NC(=O)c1ccc2cncn2c1)C(=O)N1C[C@H]2[C@@H]([C@H]1C(=O)N[C@H](C#N)C[C@@H]1CCNC1=O)C2(C)C` [Compound 29], the EC50 in assay [1] and in assay [3] was more than 30 µM throughout. The IC50 in assay [2] amounted to 0.405 µM.

With `CC(C)(C)[C@H](NC(=O)c1c(F)c(F)c(F)c(F)c1F)C(=O)N1C[C@H]2[C@@H]([C@H]1C(=O)N[C@H](C#N)C[C@@H]1CCNC1=O)C2(C)C` [Compound 30], the figures for the EC50 in assay [1] and in assay [3] were 3.56 µM and 1.8 µM, respectively. The same compound had an IC50 in assay [2] of 0.714 µM.

On to `CC(C)(C)[C@H](NC(=O)c1cn2ccccc2n1)C(=O)N1C[C@H]2[C@@H]([C@H]1C(=O)N[C@H](C#N)C[C@@H]1CCNC1=O)C2(C)C` [Compound 31], for which the EC50 was 22.2 µM in assay [1] and more than 30 µM in assay [3]. Also, the IC50 in assay [2] is 2.75 µM.

`CC(C)(C)OC(=O)N1c2ccccc2CC1C(=O)N[C@H](C(=O)N1C[C@H]2[C@@H]([C@H]1C(=O)N[C@H](C#N)C[C@@H]1CCNC1=O)C2(C)C)C(C)(C)C` (stereo partly drawn) [Compound 36]: the EC50 in assay [1] came out at 2.75 µM; in assay [3], 15.6 µM. The IC50 in assay [2] is 0.617 µM.

Consider `CC(C)(C)OC(=O)N1[C@@H](C(=O)N[C@H](C(=O)N2C[C@H]3[C@@H]([C@H]2C(=O)N[C@H](C#N)C[C@@H]2CCNC2=O)C3(C)C)C(C)(C)C)C[C@H]2CCCC[C@H]21` [Compound 37], for which the values for the EC50 in assay [1] and in assay [3] were 4.49 µM and more than 30 µM, respectively. Further, the IC50 in assay [2] is 2.15 µM.

Consider `CN(C(=O)OC(C)(C)C)C(C)(C)C(=O)N[C@H](C(=O)N1C[C@H]2[C@@H]([C@H]1C(=O)N[C@H](C#N)C[C@@H]1CCNC1=O)C2(C)C)C(C)(C)C` [Compound 38], for which the EC50 in assay [1] and in assay [3] was more than 30 µM throughout. In assay [2], this compound showed an IC50 of 9.82 µM.

For the compound `CN(C)C(=O)N[C@H](C(=O)N1C[C@H]2[C@@H]([C@H]1C(=O)N[C@H](C#N)C[C@@H]1CCNC1=O)C2(C)C)C(C)(C)C` [Compound 39, (1R,2S,5S)—N—((S)-1-cyano-2-((S)-2-oxopyrrolidin-3-yl)ethyl)-3-((S)-2-(3,3-dimethylureido)-3,3-dimethylbutanoyl)-6,6-dimethyl-3-azabicyclo[3.1.0]hexane-2-carboxamide], the EC50 is 17.6 µM in assay [1] and more than 30 µM in assay [3]. In addition, in assay [2], the half-maximal inhibitory concentration (IC50) was found to be 0.421 µM.

With `CC(C)(C)[C@H](NC(=O)c1nc2ccccc2[nH]1)C(=O)N1C[C@H]2[C@@H]([C@H]1C(=O)N[C@H](C#N)C[C@@H]1CCNC1=O)C2(C)C` [Compound 41], the EC50 in assay [1] and in assay [3] was more than 30 µM each time. The same compound yielded an IC50 in assay [2] of 7.88 µM.

The EC50 is the concentration giving half of the maximal effect. As a reminder, the IC50 is the midpoint of a concentration-inhibition curve. A high value points to a need for much substance.
